# Patent US9339549B2, “Cationic graft-copolymer for drug delivery system” (priority 2013, dated 2016)
# Assays:
# [1] = test system: B16F10 melanoma cells; assay: Anti-tumor effects and survival in B16F10 tumor-bearing C57BL/6 mice; type: in vivo, mouse
# Protocol: In vivo analysis for melanoma cells is investigated by C57BL/6 female mouse. Anti-tumor effects and survival rates were investigated in tumor-bearing mice.
# To evaluate the anti-tumor effects of DMMC/PTX complex, tumor-bearing mice were prepared by inoculating B16F10 melanoma cells S.C onto the back of C57BL/6 female mouse (2.0×10^6 cells/mouse). At average 1885 mm^3 of tumor volume, 12 days after inoculation, paclitaxel (PTX), DMMC/PTX4 (particle size 50 nm), DMMC/PTX5 (particle size 290 nm), and […] were administrated by I.P. injection three times (at a dose of 10 mg PXL/kg, on days 12, 14, and 16). Tumor size was measured with a digital vernier caliper and the volume was calculated using the relation V (mm^3)=(a×b^2)/2 where a is the longer, and b is the shorter diameter. The survival periods also monitored at 2 day intervals.
# The tumor growth inhibitory activities were evaluated using B16F10 in xeno-graft tumor-bearing C57BL/6 mice. The tumors rapidly grew in size when the mice were treated with saline and PTX. […] The mean tumor volumes increase rate in the PTX, […], DDMC/PTX4 and DDMC/PTX5 groups were 1.85, 1.84, 1.39 and 1.53, respectively.
# [2] = test system: NIH/3T3 cells (mouse embryonic fibroblast cell line); assay: MTT test using NIH/3T3 cells; type: cell-based; conditions: incubation 50 hours at 37° C.
# Protocol: Following procedure by MTT assay of DESCRIPTION OF EMBODIMENTS (4), after incubation of NIH/3T3 cells (mouse embryonic fibroblast cell line) for 50 hours at 37° C., cell viability was examined.
# This test is a quantitative colorimetric method to determine cell proliferation. It utilizes the yellow tetrazolium salt [3-(4,5-Dimethylthiazol-2-yl)-2,5-diphenyltetrazolium-bromide] which is metabolized by mitochondrial succinic dehydrogenase activity of proliferating cells to yield a purple formazan reaction product.
# The formazan is then solubilized by isopropyl alcohol, and the concentration determined by optical density at 570 nm and cell survival was calculated using the following formula: Cell survival (%)=((As−Ab)/(Ac−Ab))×100
# Where, As=absorbance of the sample, Ac=absorbance of the control well […] and Ab=absorbance of the blank well.
# 1. Plate cells into 96-well tissue culture plates. Cells should be seeded at densities of 10,000 cells per well since they will reach optimal population densities within 24 to 48 hours.
# 2. Carry out the experiment by adding DDMC/PTX or PTX into appropriate well. The final volume of tissue culture medium in each well is 0.1 mL, and the medium may contain up to 10% Fetal Bovine Serum.
# 3. Use one vial of MTT solution for each 96-well plate assay.
# 4. Add 10 μL MTT solution to each well. […]
# 7. Read absorbance at 570 nm cell survival (%)=((As−Ab)/(Ac−Ab))×100
# [3] = I.P. three times, 10 mg PXL/kg on days 12, 14, 16, B16F10 tumor-bearing C57BL/6 mice
molecule,measurement,setting,value
paclitaxel [PTX],mean tumor volumes increase rate,[1]; [3],1.85
same,"median survival time (50%, MST)",[1]; [3],176 h
same,T/C of median survival time,[1]; relative to serine (saline) group = 1.0,1.46
"CC(=O)O[C@H]1C(=O)[C@@]2(C)[C@H]([C@H](OC(=O)c3ccccc3)[C@]3(O)C[C@H](OC(=O)[C@H](O)[C@@H](NC(=O)c4ccccc4)c4ccccc4)C(C)=C1C3(C)C)[C@]1(OC(C)=O)CO[C@@H]1C[C@@H]2O [control 2, paclitaxel]","IC50 (μg/ml), MTT",[2],4.5 µg/mL
"CC(=O)O[C@H]1C(=O)[C@@]2(C)[C@H]([C@H](OC(=O)c3ccccc3)[C@]3(O)C[C@H](OC(=O)[C@H](O)[C@@H](NC(=O)c4ccccc4)c4ccccc4)C(C)=C1C3(C)C)[C@]1(OC(C)=O)CO[C@@H]1C[C@@H]2O [control 1, paclitaxel]",IC50,"[2]; Mus musculus, NIH3T3, 50 h, read-out: IC50 (μg/ml), MTT",3 µg/mL
